“And” between values parts separate entries of the source, which are not always exact repeats. Equal entries are not always repeated.
How the values were obtained:
CYP2E1 = CYP2E1 (Homo sapiens, UniProt P05181); settings: read-out: Literature IC50 value, CYP2E1; Chlorzoxazone-6-hydroxylation; positive control inhibitor; unit inferred; cited from earlier work
[1] = test system: 6-OHDA lesion of the SNpc; assay: Parkinson's disease in vivo: 6-OHDA model; set-up: species or system mouse; settings: 6-OHDA lesioned mice, dose not given; for Behaviour (Rotation) % SSV: SSV = 0%
Method: Parkinson's Disease In Vivo Technique: 6-OHDA Model
Preparation of the toxin 6-OHDA (1.65 mg/mL, Sigma Cat# H-4381):
6-OHDA toxin is dissolved in ascorbic acid solution (0.2 mg/mL in dH2O), store in dark on ice. To increase the speed of anaesthesia and reduce stress to the mouse, there is premedication with atropine (0.5 mg/kg) and xylazine (10 mg/kg) is injected subcutaneously via a 27 gauge needle).
To Prepare the Lesion Needle to Inject 6-OHDA:
PBS is sucked up into the line (ensure no air bubbles) with up to […] in a Hamilton syringe. Syringe is placed the in the Kd Scientific syringe pump and secured. Pump is turned the on and syringe is loaded into the pump. Pump volume is set at […] and the rate is set at 0.5 ml/min. The lesion needle is positioned so that the bevelled (eye) of the needle is at a 45° angle from the midline and tightened to secure the needle. Pump is run and checked for fluid coming out.
3-4% isoflurane is carried by oxygen to induce anaesthesia and 1-2% for maintenance of anaesthesia. Animal is placed in small induction chamber and subjected to a few minutes of 4% isoflurane in oxygen at a flow rate of approx 1 l/min. Mouse is then placed in stereotaxic frame. The anaesthetic tube is disconnected from induction box and isoflurane reduced to 2% conc and oxygen flow rate to approx […]. Tube is connected to the nose piece attached to stereotaxic frame so that anaesthetic gas can be constantly administered during surgery. LHS ear bar is screwed at approx 3 mm. RHS ear bar is screwed in until there is no sideways head movement (about 5 mm). Front incisors are placed over the mouthguard and put nose-guard on (3 mm below 0). Mouthguard is screwed into place and ensured the top of the mouse's head is level (re-check this once the animal's skull is exposed).
Using a scalpel (size 4, blade 22), the scalp is cut down the centreline of the mouse's head to expose the skull. Typically 10-15 mm. The surface of the skull is dried with a cotton bud. Drill hole is measured with a ruler 3 mm posterior from Bregma and between 1 and 1.5 mm laterally from the centre line. The skull is drilled into this position until the surface of the brain is exposed.
6-OHDA is sucked up to fill approximately 15 cm of the line and the syringe. Fluid is ensured to be coming out of needle. The bevelled of the needle is aligned over the centreline where Bregma crosses, viewed by Motik dissecting microscope. The needle is ensured to be a few mm above the skull before positioning. Frame is moved 2.9 mm in a posterior direction and 1.1 mm (11 small notches) laterally to the right (for RHS injections) from the starting coordinates at Bregma. Needle is moved down until the tip of the needle just touches the surface of the brain.
Needle is lowered to the required depth of 4.6 mm and brain is allowed to settle for 2 min.
[…] of toxin is injected into the RHS SNpc, taking 4 min. 2 min is allowed to ensure the toxin disperses. Needle is withdrawn and antiseptic applied to the wound, with suture or superglue to close.
Mouse is wrapped in a piece of tissue and placed in a warm recovery box (on a heat pad) with water bottles (50 ml tubes) warmed to 50 C. Panadol® syrup is added to mouse's water bottle.
Rotation is recorded by the Computer based Rotacount system—(Columbus Instruments, Columbus, Ohio, USA). The system comprised of 8 bowls with sensors connected to a computer which measures incremental turns (90 degrees and full turns 360 degrees) either clockwise or counter clockwise. The sensors are positioned above the centre of each bowl about 30 cm above each. Tubing and a thin empty plastic pipette are attached so that the sensor is now extended to with a few cm of the base of the bowl.
Mice are placed individually into the eight bowls. Mice are secured to the pipettes via a cable tie and tape. […]

[2] = test system: MPTP induced cell death in the SN; assay: Parkinson's disease in vivo: MPTP model; set-up: species or system mouse; settings: MPTP mice

Chain of CYP2E1 (P05181 whole entry): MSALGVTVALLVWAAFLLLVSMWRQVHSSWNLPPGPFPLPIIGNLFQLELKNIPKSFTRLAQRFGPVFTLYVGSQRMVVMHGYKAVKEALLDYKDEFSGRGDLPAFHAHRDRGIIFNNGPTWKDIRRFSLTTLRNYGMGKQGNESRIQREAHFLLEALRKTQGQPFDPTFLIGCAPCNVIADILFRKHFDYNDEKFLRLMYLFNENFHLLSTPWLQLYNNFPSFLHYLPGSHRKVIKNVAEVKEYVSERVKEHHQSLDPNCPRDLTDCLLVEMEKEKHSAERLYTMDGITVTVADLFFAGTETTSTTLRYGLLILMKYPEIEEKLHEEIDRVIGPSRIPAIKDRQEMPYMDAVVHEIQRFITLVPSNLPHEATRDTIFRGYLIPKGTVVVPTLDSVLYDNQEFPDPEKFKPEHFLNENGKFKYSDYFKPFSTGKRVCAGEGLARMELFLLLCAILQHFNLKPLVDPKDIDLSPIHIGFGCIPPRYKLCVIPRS

SMILES | IC50 (CYP2E1) [µM] | Behaviour (Rotation) % SSV [1] [%] | Behaviour (Rotation) total turns/h ± SD [1] | SN cell counts % of SSV (SSV = 0%) [1] [%] | SN cell counts (cells ± SD) [1] | Behaviour Pole Test, % (SSV = 0%) ([2]; L-DOPA 20 mg/kg) [%] | Behaviour Pole Test, value ± SD ([2]; L-DOPA 20 mg/kg) | SN cell counts % of SSV ([2]; L-DOPA 20 mg/kg) | SN cell counts (cells +/− SD) ([2]; L-DOPA 20 mg/kg) | Behaviour Pole Test, % (SSV = 0%) ([2]; Selegiline 1 mg/kg) [%] | Behaviour Pole Test, value ± SD ([2]; Selegiline 1 mg/kg) | SN cell counts % of SSV ([2]; Selegiline 1 mg/kg) [%] | SN cell counts (cells +/− SD) ([2]; Selegiline 1 mg/kg)
N[C@@H]1C[C@H]1c1ccccc1 (racemic) [Tranylcypromine] | 8.94 |  |  |  |  |  |  |  |  |  |  |  | 
N[C@@H](Cc1ccc(O)c(O)c1)C(=O)O [L-DOPA, L-3,4-dihydroxyphenylalanine] |  | 52.26 | (123.67 ± 80.90) turns/h | 1.73 | (1953.78 ± 280.21) cells | −205.29 | (8.91 ± 5.25) | 10.39% and 4.50% | 1935 ± 296 cells and 2015.91 ± 729.87 cells |  |  |  | 
C#CCN(C)[C@H](C)Cc1ccccc1 [Selegiline, reference compound] |  | 71.13 | (74.80 ± 57.95) turns/h | 0.43 | (1928.89 ± 301.77) cells |  |  |  |  | −198.93 | (8.73 ± 7.95) | 39.2 | (2754.62 ± 461.23) cells
